This note sets out measurements from patent publication US20230109839A1, “THERAPEUTIC AGENT FOR TAUOPATHIES” (SUMITOMO PHARMA CO., LTD., priority 2020, published 2023).

“Also recorded” adds a separate entry of the source. Read-outs that look alike come from different tables or passages of the source.

In one assay the target is T1, human Nav1.1 (Homo sapiens, UniProt P35498).
T1 construct: host or cells: HEK293
Put plainly: Amplification of Nav1.1-derived voltage-gated sodium current (Nav1.1 current), automated patch clamp (Test 1). Type of assay: cell-based. The note with it: read-out: Nav1.1 current amplification rate (%). The method, boiled down:
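HEK293 cells stably expressing human Nav1.1, restricted to cells with >500 pA current, were recorded by automated voltage-clamp patch clamp with a ramp voltage stimulus. Compounds were applied in HEPES-buffered extracellular solution with 1% DMSO. Amplification (%) = 100×(peak or AUC after/before compound)−100.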
(In general: The patch-clamp technique gives a direct electrical read-out from membranes.)

The next assay has as its system APP-Tg mouse. Description: Evaluation of the cognitive function by novel object recognition test (NORT) in APP-Tg mice (Test 3). The format is in vivo. The note with it: for improvement of cognitive function (NORT), summary of the above results / improvement of cognitive function (NORT): APP-Tg mice; for improvement of cognitive function (NORT), summary of the above results: alone, with Elacridar or with ABT depending on the compound; for improvement of cognitive function (NORT): test compound and ABT (1 mg/g-food) administered with food for 10 days; for Discrimination index: APP-Tg mouse, with ABT 1 mg/g-food. More on the design: key to Discrimination index: (novel − known search time)/(novel + known search time). Here is the method:
Test 3: Evaluation of the Cognitive Function by Novel Object Recognition Test (Hereinafter, Also Referred to as “NORT”)
The present test is for evaluating the improvement of cognitive function with the test compounds. When an APP-Tg mouse which is an AD (Alzheimer's disease) model mouse is evaluated by NORT, the memory for a familiar object decreases depending on the time interval between the first trial run (training) and the second trial run (test). For example, if the first trial run is done and 3 hours later the second one is done, there is no difference in the searching times between novel object and known object for the APP-Tg mouse, compared with a healthy mouse. Thus, the APP-Tg mouse suffers from significant amnesia.
The APP-Tg mouse used herein was prepared by constructing an expression cassette linked to human APP751 isoform to which Swedish (K670N/M671L) and Indiana (V717F) mutation were introduced at downstream of mouse Thy-1 promoter, then injecting the expression cassette into a mouse fertilized egg, and transplanting it to a host mouse. The prepared mouse presents with intracerebral AB accumulation and cognitive dysfunction from early on, and thus the mouse can be used for the evaluation of cognitive function. APP-Tg mouse has been also reported in Non-patent literature 6.
To the prepared APP-Tg mouse, the test compound was administered, and then the first trial run was done for the mouse 30 minutes after the intraperitoneal administration or after 10 days of mixed diet administration. The second trial run was done 3 hours after the first trial run, and the searching times between novel object and known object in the second trial were evaluated. The discrimination index was calculated from the searching time for novel object and known object in the second trial run, and the improvement of cognitive function of the test compound was confirmed by comparing the discrimination index with the test compound-unadministered group as an index of the cognitive function. The discrimination index was calculated by the following formula.
Discrimination index={(Searching time for novel object)−(Searching time for known object)}/{(Searching time for novel object)+(Searching time for known object)}
The present test can be also done with a combination with Elacridar (Tokyo Chemical Industry Co., Ltd.). Elacridar can inhibit P-gp and BCRP which are excretion transporters expressed in the blood-brain barrier and thereby Elacridar has the effect of improving the transferability of the test compound to the brain. Eracridal was orally administered to APP-Tg mice at 100 mg/kg 2 hours before the first trial run, and then the test compound was intraperitoneally administered to the mice 30 minutes before the first trial run according to the above method. And, the improvement of cognitive function was evaluated. The significant difference from the vehicle-administered group was determined using the parametric Dunnett multiple comparison test.
And, the present test can be also done with a combination with ABT (1-aminobenzotriazole) (Tokyo Chemical Industry Co., Ltd.). ABT has the effect of improving the blood concentration of the test compound by inhibiting CYP and suppressing metabolism. The test compound and ABT (1 mg/g-food) were administered with food to APP-Tg mice for 10 days, and then the improvement of cognitive function was evaluated according to the above method. The significant difference from the vehicle-administered group was determined using the parametric Dunnett multiple comparison test.

In assay [1] the test system is phosphorylated tau oligomer. Put plainly: Evaluation of phosphorylated tau oligomers in brain of APP-Tg mice, Western blotting (Test 4). Type of assay: in vivo, mouse. Conditions: for Reducing effect of phosphorylated tau oligomer: 7-10 days, with ABT 1 mg/g-food; for reducing effect of tau oligomer: with food for 7-10 days, ABT 1 mg/g-food depending on the compound, brain, anti-oligomerized tau antibody TOMA-1. On the procedure:
Test 4: Evaluation of Phosphorylated Tau Oligomers Using APP-Tg Mice
This test is a test to quantify the oligomer of phosphorylated tau in the brain to evaluate the action of a compound. […] The APP-Tg mice used herein were prepared by the method described in Test 3.
The test compound administered with food to APP-Tg mice for 7-10 days. At this time, in order to increase the blood concentration of the test compound, ABT was used in combination with a mixed diet of 1 mg/g-food depending on the compound. After the administration, the brain was collected, and the protein is extracted from the collected brain using TBS (Tris Buffered Saline) or sarcosyl, and then SDS-PAGE (sodium dodecyl sulfate-polyacrylamide gel electrophoresis) of the soluble or insoluble fraction was performed. After that, Western blotting was performed using an anti-oligomerized tau antibody (Anti-Tau, oligomeric, clone TOMA-1), and the effect of the test compound was evaluated by quantifying the band amount of the phosphorylated tau oligomer.
The reducing effect of phosphorylated tau oligomer was calculated by the following formula, and from the calculated values, the results were defined as follows: 0-25%: +, 25-50%: ++, 50-75%: +++, and 75-100%: ++++. The significant difference from the vehicle-administered group was determined using the Student t-test. For the band amount, the value corrected by the β-actin band amount was used.
Reducing effect of phosphorylated tau oligomer={(band amount of oligomerized tau in vehicle-administered group−band amount of oligomerized tau in test compound-administered group)/band amount of oligomerized tau in vehicle-administered group}×100

Assay [2] has as its system intracerebral tau aggregate accumulation. Put plainly: Intracerebral tau aggregate accumulation in rTg4510 mice, tau PET with [18F] PM-PBB3, SUVR (Test 5). The format is in vivo, mouse. Conditions: for SUVR(cerebellum ratio) cerebral neocortex / SUVR(cerebellum ratio) hippocampus: 4.5 mg/g-food, with ABT 1 mg/g-food. An excerpt: (§1) Test 5: Evaluation of Intracerebral Tau Aggregate Accumulation and Cerebral Atrophy Using rTg4510 Mice
(§2) This test is a test to evaluate the effects of the compounds on intracerebral tau aggregate accumulation and cerebral atrophy. The rTg4510 mice overexpress the human-type FTDP-17 mutant tau in the forebrain, and month-age-dependent intracerebral tau aggregate accumulation and cerebral atrophy are observed. The rTg4510 mice used herein were produced by mating Tg (tauP301L) 4510 mice (Stock No. 015815) and CaMKII-tTA mice (Stock No. 007004) purchased from The Jackson Laboratory and breeding them.
(§3) The test compound was administered as a mixed diet to rTg4510 mice from the age of 4 months, and PET scan and MRI were performed at the ages of 4, 6 and 8 months to quantitatively evaluate the amount of the intracerebral tau aggregate accumulated and cerebral atrophy. The PET scan was performed using MicroPET Focus 220 of Siemens Medical Solutions (0.851 mm thick (intercenter) 95 slices, 19.0 cm axial field of view (FOV), and 7.6 cm intra-section FOV). The administration of radioactive compound [^18F] PM-PBB3 (precursor obtained from Aprinoia) and the PET scan were performed in dimly lit after the mice was treated with 1.5% isoflurane anesthesia to avoid […] of the radioactive compound. The emission scan was performed for 60 minutes immediately after the intravenous administration of [^18F] PM-PBB3 (1 mCi) (3D list mode, energy window: 350-750 keV). Then, the list mode data sorted into 3D synograms were converted into 2D synograms by Fourier-rebinding (frames: 4×1, 8×2 and 8×5 minutes). The dynamic image for 60 minutes after the administration of [^18F] PM-PBB3 was reconstructed by a filter-corrected back projection with a 0.5 mm Hanning filter. Regions of interest (ROI) were set in multiple brain regions using PMOD image analysis software (PMOD Technology) with reference to the MRI templates and the PET reconstructed images. Tau aggregate accumulation was evaluated by calculating SUVR (Standardized uptake value ratio) with the cerebellum as a reference region, based on the added average of dynamic images from 40 minutes to 60 minutes.

The subject of the next assay is rTg4510 mice. Description: Cerebral atrophy in rTg4510 mice, MRI volume of brain regions (Test 5). The format is in vivo, mouse. Conditions: for lateral ventricular volume (mm^3): 4.5 mg/g-food, with ABT 1 mg/g-food.
Text: as §1, §2, §3
The evaluation of cerebral atrophy was performed with horizontal superconducting magnet type MRI (7T, inner diameter 400 mm, self-shielding type, zero boil-off type). The imaging was performed under isoflurane anesthesia while maintaining the rectal temperature at 36.5±0.5° C. After Tripilot acquisition, the brain images were acquired by TurboRARE T2 emphasis sequence (TR: 4200 ms, TE: 36 ms, Fat-Sup: on, NA: 4, RARE factor: 8, scan time: 14 min) (FOV read: 25.6 mm, FOV P1: 14.5 mm, Slice thickness: 0.5 mm, number of slices: 28). The ROI of each brain region was set in each of the acquired slices, and the volume of the brain region was calculated by summing the ROI areas of all the slices to evaluate the effect of the test compound.

The mark [3] stands for this setting: HEK293, Concentration for evaluation 1 μM, HEK293 cell line stably expressing human Nav1.1.
Where [4] appears, read: mixed diet 4.5 mg/g-food with ABT 1 mg/g-food.

With `N#Cc1ccc(NC(=O)Cn2ncc3ncc(N4CCC5(CC5)C(F)(F)C4)nc32)cn1` [Example 746, N-(6-cyanopyridin-3-yl)-2-[6-(4,4-difluoro-6-azaspiro[2.5]octan-6-yl)-1H-pyrazolo[3,4-b]pyrazin-1-yl]acetamide], the activation at 1 µM at human Nav1.1 (setting [3]) turned out to be 102%. In addition, in the assay with APP-Tg mouse, the “improvement of cognitive function (NORT), summary of the above results” value is on record as “some improvement of cognitive function”. The “improvement of cognitive function (NORT)” value in the assay on APP-Tg mouse is on record as “some improvement of cognitive function”. The Discrimination index in the assay with APP-Tg mouse (dose 0.2 mg/g-food for 10 days) was 0.28; in the assay with APP-Tg mouse (dose 2 mg/g-food for 10 days), 0.38. Also, the “Reducing effect of phosphorylated tau oligomer” value in assay [1] (dose 0.2 mg/g-food) and in assay [1] (dose 2 mg/g-food) was “++ (25-50%: ++)” each time. For the same compound, the “reducing effect of tau oligomer” value in assay [1] was “some reducing effect of tau oligomer”.

Regarding `N#Cc1ccc(NC(=O)Cn2nc(N3CCC4(CC4)C(F)(F)C3)ccc2=O)cn1` [Example 560, N-(6-cyanopyridin-3-yl)-2-[3-(4,4-difluoro-6-azaspiro[2.5]octan-6-yl)-6-oxopyridazin-1(6H)-yl]acetamide], the “Reducing effect of phosphorylated tau oligomer” value was “++ (25-50%: ++)” in assay [1] (dose 0.5 mg/g-food) and “++++ (75-100%: ++++)” in assay [1] (dose 4.5 mg/g-food). For the same compound, in assay [1], the “reducing effect of tau oligomer” value is recorded as “some reducing effect of tau oligomer; also recorded: strong reducing effect of tau oligomer”. The entries for the “SUVR(cerebellum ratio) cerebral neocortex” value in assay [2] (4 month old), in assay [2] (6 month old) and in assay [2] (8 month old) were 1.026 ± 0.037, 1.224 ± 0.060 and 1.351 ± 0.049, respectively. Further, the results for the “SUVR(cerebellum ratio) hippocampus” value in assay [2] (4 month old), in assay [2] (6 month old) and in assay [2] (8 month old) were 1.103 ± 0.036, 1.328 ± 0.078 and 1.468 ± 0.056, respectively. Besides, the “age-dependent increase in SUVR in the cerebral neocortex and hippocampus (FIG. 7)” value in assay [2] (setting [4]) is listed as “tended to be suppressed”. Further, in assay [2] (mixed diet 4.5 mg/g-food with ABT 1 mg/g-food, ages 4, 6 and 8 months), the “increase in PET tracer accumulation in each brain region with aging (average SUVR images, FIG. 6)” value was “suppressed”. For the same compound, the “lateral ventricular volume (mm^3)” value in the assay with rTg4510 mice (4 month old) worked out at 0.47 ± 0.06 mm^3; with rTg4510 mice (6 month old), 0.34 ± 0.10 mm^3; in the assay with rTg4510 mice (8 month old) it was 0.71 ± 0.35 mm^3. Also, the “age-dependent increase in lateral ventricular volume” value with rTg4510 mice (setting [4]) is “suppressed”.

As to `CN(c1cnc2cnn(CC(=O)Nc3ccc(C#N)nc3)c2n1)C1CC2(CC2)C1` [Example 753, N-(6-cyanopyridin-3-yl)-2-{6-[methyl(spiro[2.3]hexan-5-yl)amino]-1H-pyrazolo[3,4-b]pyrazin-1-yl}acetamide], at human Nav1.1 (setting [3]), the activation at 1 µM came out at 106%. The Discrimination index came to 0.21 in the assay on APP-Tg mouse (dose 0.1 mg/g-food for 10 days) and 0.28 in the assay on APP-Tg mouse (dose 4 mg/g-food for 10 days). The “Reducing effect of phosphorylated tau oligomer” value in assay [1] (dose 0.1 mg/g-food) and in assay [1] (dose 4 mg/g-food) was “++ (25-50%: ++)” each time. In addition, the “reducing effect of tau oligomer” value in assay [1] is given as “some reducing effect of tau oligomer”.

Regarding `CN(c1ncc2cnn(CC(=O)Nc3ccc4ncnn4c3)c2n1)C1CC(C)(C)C1` [Example 821, 2-{6-[(3,3-dimethylcyclobutyl)(methyl)amino]-1H-pyrazolo[3,4-d]pyrimidin-1-yl}-N-([1,2,4]triazolo[1,5-a]pyridin-6-yl)acetamide], the activation at 1 µM on human Nav1.1 (HEK293, concentration for evaluation 1 μM, HEK293 stably expressing human Nav1.1) is 116%. In the assay with APP-Tg mouse, the “improvement of cognitive function (NORT), summary of the above results” value is on record as “some improvement of cognitive function”. For the same compound, the “improvement of cognitive function (NORT)” value in the assay on APP-Tg mouse is on record as “some improvement of cognitive function; also recorded: strong improvement of cognitive function”. The Discrimination index in the assay with APP-Tg mouse (dose 0.2 mg/g-food for 10 days) amounted to 0.30; in the assay with APP-Tg mouse (dose 2 mg/g-food for 10 days) it was 0.37. The “Reducing effect of phosphorylated tau oligomer” value in assay [1] (dose 0.2 mg/g-food) and in assay [1] (dose 2 mg/g-food) was “+ (0-25%: +)” each time.
